Structures can show the parent of a compound that is named as a salt.
Legend:
[1] = target: T1, DA-uptake (reuptake of dopamine in synaptosomes) (Rattus norvegicus, UniProt P23977); test: Inhibition of dopamine (DA) reuptake in synaptosomes; type: biochemical
T1 construct: In synaptosomes as described in WO 97/16451; from tissue
Experimental: (§1) A number of compounds were tested for their ability to inhibit the reuptake of the monoamine neurotransmitters dopamine (DA) noradrenaline(NA) and serotonin (5-HT) In synaptosomes as described in WO 97/16451.
(§2) The test values are given as IC50 (the concentration (μM) of the test substance which inhibits the specific binding of ^3H-DA, ^3H-NA, or ^3H-5-HT by 50%).

[2] = target: T2, NA-uptake (reuptake of noradrenaline in synaptosomes) (Rattus norvegicus, UniProt Q9WTR4); test: Inhibition of noradrenaline (NA) reuptake in synaptosomes; type: biochemical
T2 construct: In synaptosomes as described in WO 97/16451; from tissue
T2 sequence (Q9WTR4 1-597): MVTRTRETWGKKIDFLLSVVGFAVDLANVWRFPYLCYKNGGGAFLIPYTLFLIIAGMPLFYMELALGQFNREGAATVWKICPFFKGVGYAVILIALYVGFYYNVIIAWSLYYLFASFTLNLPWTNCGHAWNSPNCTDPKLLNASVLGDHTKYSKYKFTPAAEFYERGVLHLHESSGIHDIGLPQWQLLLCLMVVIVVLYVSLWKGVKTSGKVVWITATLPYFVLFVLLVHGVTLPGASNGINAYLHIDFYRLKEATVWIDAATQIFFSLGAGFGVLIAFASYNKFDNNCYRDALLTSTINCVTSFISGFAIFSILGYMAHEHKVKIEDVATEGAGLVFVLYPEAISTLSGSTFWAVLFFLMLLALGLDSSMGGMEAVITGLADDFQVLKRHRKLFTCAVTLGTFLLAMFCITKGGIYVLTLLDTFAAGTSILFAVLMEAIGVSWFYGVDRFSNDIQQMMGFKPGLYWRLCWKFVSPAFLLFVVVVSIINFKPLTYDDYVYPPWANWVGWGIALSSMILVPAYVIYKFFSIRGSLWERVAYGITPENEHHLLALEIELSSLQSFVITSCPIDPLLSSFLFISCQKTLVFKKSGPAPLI
Experimental: as §1, §2

[3] = target: T3, 5-HT-uptake (reuptake of serotonin in synaptosomes) (Rattus norvegicus, UniProt P31652); test: Inhibition of serotonin (5-HT) reuptake in synaptosomes; type: biochemical
T3 construct: In synaptosomes as described in WO 97/16451; from tissue
T3 sequence (P31652 whole entry): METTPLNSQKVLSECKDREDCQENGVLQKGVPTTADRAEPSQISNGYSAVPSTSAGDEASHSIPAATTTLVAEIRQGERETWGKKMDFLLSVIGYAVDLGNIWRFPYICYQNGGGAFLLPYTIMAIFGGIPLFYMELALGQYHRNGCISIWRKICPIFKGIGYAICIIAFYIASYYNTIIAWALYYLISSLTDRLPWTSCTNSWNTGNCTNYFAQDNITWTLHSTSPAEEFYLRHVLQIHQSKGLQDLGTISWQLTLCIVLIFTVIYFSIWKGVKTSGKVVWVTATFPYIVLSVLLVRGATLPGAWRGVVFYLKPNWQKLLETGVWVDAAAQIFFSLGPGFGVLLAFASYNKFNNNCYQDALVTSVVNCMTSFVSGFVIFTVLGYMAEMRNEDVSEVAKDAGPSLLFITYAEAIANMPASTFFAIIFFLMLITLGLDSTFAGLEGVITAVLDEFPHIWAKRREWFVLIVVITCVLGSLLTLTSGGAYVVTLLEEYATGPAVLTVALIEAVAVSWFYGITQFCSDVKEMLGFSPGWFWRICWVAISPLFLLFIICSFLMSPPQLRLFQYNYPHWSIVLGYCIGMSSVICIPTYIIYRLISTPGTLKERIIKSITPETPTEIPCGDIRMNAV
Experimental: as §1, §2

T1 sequence (P23977 whole entry): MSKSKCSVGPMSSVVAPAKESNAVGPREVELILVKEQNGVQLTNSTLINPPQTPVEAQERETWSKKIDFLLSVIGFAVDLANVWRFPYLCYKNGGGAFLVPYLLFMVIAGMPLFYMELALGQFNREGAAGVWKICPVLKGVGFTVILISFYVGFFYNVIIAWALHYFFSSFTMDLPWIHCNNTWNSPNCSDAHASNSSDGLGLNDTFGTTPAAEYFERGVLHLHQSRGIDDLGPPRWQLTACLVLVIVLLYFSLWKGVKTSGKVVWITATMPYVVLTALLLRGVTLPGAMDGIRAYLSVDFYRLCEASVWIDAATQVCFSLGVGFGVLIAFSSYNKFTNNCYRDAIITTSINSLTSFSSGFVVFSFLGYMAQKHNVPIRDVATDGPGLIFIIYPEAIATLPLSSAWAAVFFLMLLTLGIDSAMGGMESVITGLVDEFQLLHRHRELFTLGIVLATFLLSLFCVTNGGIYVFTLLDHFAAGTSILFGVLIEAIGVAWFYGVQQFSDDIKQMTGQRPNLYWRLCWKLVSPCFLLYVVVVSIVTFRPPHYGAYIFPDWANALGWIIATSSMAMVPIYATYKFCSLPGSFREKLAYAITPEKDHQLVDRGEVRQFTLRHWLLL

Row | Structure (SMILES) | melting point | IC50 [1] | IC50 [2] | IC50 [3]
1 | c1csc(C2CC3CCC(N3)C2COc2cccc3ccccc23)c1 (as salt: fumaric acid salt) [2nd compound of method E, (2R,3S)-2-(1-Naphthyloxymethyl)-8-H-3-(2-thienyl)-8-aza-bicyclo[3.2.1]octane fumaric acid salt] | 199.1 °C | – | – | –
2 | CN1C2CCC1[C@H](COc1cccc3ccccc13)[C@@H](c1cccs1)C2.O=C(O)/C=C/C(=O)O (stereo partly drawn) [2nd compound of method D, (2R,3S)-2-(1-Naphthyloxymethyl)-8-methyl-3-(2-thienyl)-8-aza-bicyclo[3.2.1]octane fumaric acid salt] | 203.1 °C | 360 nM | 3.6 nM | 0.42 nM
3 | Clc1cccc(OCC2C3CCC(CC2c2cccs2)N3)c1Cl [1st compound of method E, (2R,3S)-2-(2,3-Dichlorophenoxymethyl)-8-H-3-(2-thienyl)-8-aza-bicyclo[3.2.1]octane fumaric acid salt] | – | 74 nM | 1.8 nM | 0.74 nM
4 | CN1C2CCC1[C@H](COc1cccc3ccccc13)[C@@H](c1ccco1)C2 (stereo partly drawn) [6th compound of method D, (2R,3S)-2-(1-Naphthyloxymethyl)-8-methyl-3-(2-furanyl)-8-aza-bicyclo[3.2.1]octane fumaric acid salt] | – | 920 nM | 3 nM | 0.53 nM
5 | CN1C2CCC1[C@H](COc1cccc(Cl)c1Cl)[C@@H](c1ccco1)C2.O=C(O)/C=C/C(=O)O (stereo partly drawn) [5th compound of method D, (2R,3S)-2-(2,3-Dichlorophenoxymethyl)-8-methyl-3-(2-furanyl)-8-aza-bicyclo[3.2.1]octane fumaric acid salt] | 156.4 to 205.9 °C | 310 nM | 0.9 nM | 0.36 nM
6 | c1csc(C2CC3CCC(N3)C2COc2cccc3ccccc23)c1 [2nd compound of method E, (2R,3S)-2-(1-Naphthyloxymethyl)-8-H-3-(2-thienyl)-8-aza-bicyclo[3.2.1]octane fumaric acid salt] | – | 190 nM | 1.6 nM | 0.54 nM
7 | CN1C2CCC1[C@H](COc1cccc(Cl)c1Cl)[C@@H](c1cccs1)C2 (stereo partly drawn) [1st compound of method D, (2R,3S)-2-(2,3-Dichlorophenoxymethyl)-8-methyl-3-(2-thienyl)-8-aza-bicyclo[3.2.1]octane fumaric acid salt] | – | 300 nM | 1.9 nM | 0.52 nM
8 | Clc1cccc(OCC2C3CCC(CC2c2cccs2)N3)c1Cl (as salt: fumaric acid salt) [1st compound of method E, (2R,3S)-2-(2,3-Dichlorophenoxymethyl)-8-H-3-(2-thienyl)-8-aza-bicyclo[3.2.1]octane fumaric acid salt] | 201.2 °C | – | – | –

Reference: patent US7247643B2, “8-aza-bicyclo (3.2.1) octane derivatives and their use as monoamine neurotransmitter re-uptake inhibitors” (NeuroSearch A/S, priority 2003, dated 2007)
